This is an account of results in PubChem BioAssay (NCI).

The structures appear in SMILES notation.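 Following 48 hours of exposure in 96-well plates, responses at five concentrations were used to interpolate endpoints linearly. TGI marks complete inhibition of growth.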 Where a SMILES comes first, the peptide text is derived from it. [ ]: non-standard residue; d: D form. Hiv = CC(C)[C@H](O)C(=O)O

Common to all, as to experiment: DTP human tumour cell line panel, 48 h
The test system of assay [1] is HT29 colon.
The subject of assay [2] is SF-268 CNS.
The test system of assay [3] is MDA-MB-231 breast.
In assay [4] the test system is RXF 393 renal.
The subject of assay [5] is MDA-N.
For assay [6], the system named is NCI-H23 lung.
Assay [7] relates to SK-MEL-2 melanoma.
The test system of assay [8] is PC-3 prostate.
The test system of assay [9] is MOLT-4 leukemia.
Assay [10] has as its system NCI-H460 lung.
For assay [11], the system named is NCI/ADR-RES ovarian.
Assay [12] concerns HL-60(TB) leukemia.
The subject of assay [13] is SW-620 colon.
Assay [14] relates to SNB-75 CNS.
In assay [15] the test system is MDA-MB-435.
For assay [16], the system named is HCT-15 colon.
The subject of assay [17] is SN12C renal.
For assay [18], the system named is OVCAR-3 ovarian.
The subject of assay [19] is SK-MEL-28 melanoma.
For assay [20], the system named is RPMI-8226 leukemia.

As a reminder, the TGI is the concentration at which net growth stops. As to `COC(=O)C(/C(=N/N)C(=O)Nc1cccc(O)c1)c1nc2ccccc2[nH]c1=O` (stereo not given), the TGI in assay [1], in [2], in assay [3], in assay [4], in assay [5] and in assay [6] was greater than 100 µM each time. In addition, the concentration for total growth inhibition (TGI) in assay [7], in assay [8], in assay [9], in [10], in assay [11] and in [12] was greater than 100 µM in each case. Further, the concentration for total growth inhibition (TGI) in assay [13], in assay [14], in assay [15], in assay [16], in assay [17] and in [18] was greater than 100 µM each time. This molecule displayed a TGI in [19] greater than 100 µM.

In the case of `O=C(Nc1ncc([N+](=O)[O-])s1)c1ccccc1O`, the concentration for total growth inhibition (TGI) in assay [20] was 55 µM; in [1] it was greater than 76.2 µM; in assay [2] it was greater than 75.1 µM; in assay [3], greater than 77.5 µM; in assay [4], 23.6 µM; in [5], 99.4 µM. Further, the TGI in assay [6] is greater than 70.5 µM; in [7] it was 35.6 µM; in [8] it was greater than 94.7 µM; in assay [9], greater than 100 µM; in assay [10], greater than 100 µM; in assay [11] it was greater than 82.4 µM. The TGI in [13] is greater than 100 µM; in [14] it was greater than 70.8 µM; in [15], 66.7 µM; in assay [16], greater than 86.9 µM; in [17] it was 77.7 µM; in assay [18] it was greater than 42.4 µM. The same molecule came in with a TGI in [19] greater than 100 µM.

For `COc1ccc(Nc2nc3ccc(C(F)(F)F)cc3nc2C(=O)O)cc1`, the TGI is 66.5 µM in assay [20]; greater than 100 µM in assay [1]; greater than 100 µM in [2]; greater than 100 µM in [3]; 62.6 µM in [4]; greater than 100 µM in [5]. For the same molecule, the total growth inhibition concentration (TGI) is 93.3 µM in [6]; greater than 100 µM in assay [7]; 92.4 µM in assay [8]; 98.6 µM in assay [9]; 83.7 µM in assay [10]; greater than 100 µM in assay [11]. For the same molecule, the concentration for total growth inhibition (TGI) in assay [13] was greater than 100 µM; in assay [14] it was 78.6 µM; in assay [15], greater than 100 µM; in [16], greater than 100 µM; in [17] it was greater than 100 µM; in assay [18], 47.4 µM. In assay [19], this molecule yielded a total growth inhibition concentration (TGI) greater than 100 µM.

Consider `CCOC(=O)CC(=O)CSc1c(-c2ccccc2)c(=O)n(-c2ccccc2)c(=S)n1-c1ccccc1`, for which the TGI in [1], in assay [2], in [3], in assay [4], in [5] and in [6] was greater than 100 µM each time. Besides, the TGI in [8], in assay [9], in assay [10], in [11], in [12] and in assay [13] was greater than 100 µM in each case. The concentration for total growth inhibition (TGI) in assay [14], in assay [15], in assay [16], in [17], in [18] and in [19] was greater than 100 µM in each case.

Turning to `O=c1c2cc(S(=O)(=O)Nc3ccc(Cl)cc3Cl)ccc2ncn1NS(=O)(=O)c1cccc2ccccc12`, the total growth inhibition concentration (TGI) in assay [20], in [1], in assay [2], in assay [3], in [5] and in [6] was greater than 100 µM in each case. Also, the TGI in assay [7] is greater than 100 µM; in [8] it was greater than 100 µM; in assay [9] it was 85.5 µM; in assay [10], greater than 100 µM; in [11], greater than 100 µM; in assay [12], 37.5 µM. The concentration for total growth inhibition (TGI) in assay [13], in [14], in assay [15], in assay [16], in assay [17] and in assay [18] was greater than 100 µM in each case. Besides, the total growth inhibition concentration (TGI) in assay [19] is greater than 100 µM.

Regarding `CC(C)[C@@H]1OC(=O)[C@@H](C)NC(=O)[C@@H]2CCCN2C1=O` (cyclo([Hiv]-Pro-[dA])), the TGI in assay [1], in [2], in assay [3], in [4], in assay [5] and in assay [6] was greater than 100 µM each time. Besides, the total growth inhibition concentration (TGI) in [7], in [8], in assay [9], in [10], in assay [11] and in [12] was greater than 100 µM throughout. Also, the total growth inhibition concentration (TGI) in assay [13], in assay [15], in assay [16], in assay [17], in assay [18] and in [19] was greater than 100 µM throughout.

In the case of `Cc1[nH]n(-c2ccccc2)c(=O)c1C(N(CCc1ccccc1)C1=NCC(C)S1)(C(F)(F)F)C(F)(F)F` (stereo not given), the TGI in assay [1] is greater than 100 µM; in assay [2], greater than 100 µM; in [3], 65.6 µM; in assay [5], 45.7 µM; in assay [6], 20 µM; in [7], 22.4 µM. In addition, the TGI in assay [8] came out at 84.9 µM; in [9], 97.8 µM; in assay [10], 38.2 µM; in assay [11], 89 µM; in assay [12] it was 52.5 µM; in assay [13] it was 95.3 µM. In addition, the concentration for total growth inhibition (TGI) in assay [14] is 50.1 µM; in assay [15], greater than 100 µM; in assay [16], 41.1 µM; in assay [17], 48.5 µM; in assay [18], greater than 100 µM; in assay [19], 51.2 µM.
